Measured values from the supplement of paper PMC10307832.

Tests used:
Experiment in all cases: relative viability (nuclei count vs DMSO), 5 days (fraction); higher = more cells survive
Adavosertib + Linsitinib = compound: C=CCn1c(=O)c2cnc(Nc3ccc(N4CCN(C)CC4)cc3)nc2n1-c1cccc(C(C)(C)O)n1 [Adavosertib] + C[C@]1(O)C[C@@H](c2nc(-c3ccc4ccc(-c5ccccc5)nc4c3)c3c(N)nccn32)C1 [Linsitinib] (partner 1 µM)
In short: (§1)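 Lung cancer cell lines, seeded in 1536-well plates, were treated the following day by pin tool with a single drug or with five library-drug doses (not always all listed) in √10 steps on top of a fixed anchor-drug dose. Cells were fixed and nuclei stained in one step after 5 days, and nuclei were counted. Relative viability is the nuclei count for treated wells divided by that for vehicle wells, reported as medians of duplicate plates.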

Nelarabine + Tozasertib = compound: COc1nc(N)nc2c1ncn2[C@@H]1O[C@H](CO)[C@@H](O)[C@@H]1O [Nelarabine] + Cc1cc(Nc2cc(N3CCN(C)CC3)nc(Sc3ccc(NC(=O)C4CC4)cc3)n2)n[nH]1 [Tozasertib] (partner 0.1 µM)
In short: as §1

Adavosertib + Navitoclax = compound: C=CCn1c(=O)c2cnc(Nc3ccc(N4CCN(C)CC4)cc3)nc2n1-c1cccc(C(C)(C)O)n1 [Adavosertib] + CC1(C)CCC(c2ccc(Cl)cc2)=C(CN2CCN(c3ccc(C(=O)NS(=O)(=O)c4ccc(N[C@H](CCN5CCOCC5)CSc5ccccc5)c(S(=O)(=O)C(F)(F)F)c4)cc3)CC2)C1 [Navitoclax] (partner 0.5 µM)
In short: as §1

Nelarabine + Vorinostat = compound: COc1nc(N)nc2c1ncn2[C@@H]1O[C@H](CO)[C@@H](O)[C@@H]1O [Nelarabine] + O=C(CCCCCCC(=O)Nc1ccccc1)NO [Vorinostat] (partner 1 µM)
In short: as §1

EMC-BAC-2
relative viability (Adavosertib + Linsitinib; first compound 0.01 µM): 0.823 | relative viability (Adavosertib + Linsitinib; first compound 0.03162 µM): 0.798 | relative viability (Adavosertib + Linsitinib; first compound 0.1 µM): 0.862 | relative viability (Adavosertib + Linsitinib; first compound 0.3162 µM): 0.751 | relative viability (Nelarabine + Tozasertib; first compound 0.01 µM): 0.307 | relative viability (Nelarabine + Tozasertib; first compound 0.03162 µM): 0.236 | relative viability (Nelarabine + Tozasertib; first compound 0.1 µM): 0.277 | relative viability (Nelarabine + Tozasertib; first compound 0.3162 µM): 0.239 | relative viability (Nelarabine + Tozasertib; first compound 1 µM): 0.297 | relative viability (Adavosertib + Navitoclax; first compound 0.01 µM): 1.22 | relative viability (Adavosertib + Navitoclax; first compound 0.03162 µM): 1.12 | relative viability (Adavosertib + Navitoclax; first compound 0.1 µM): 1.2 | relative viability (Adavosertib + Navitoclax; first compound 0.3162 µM): 1.19 | relative viability (Nelarabine + Vorinostat; first compound 0.01 µM): 0.47 | relative viability (Nelarabine + Vorinostat; first compound 0.03162 µM): 1.01 | relative viability (Nelarabine + Vorinostat; first compound 0.1 µM): 0.643 | relative viability (Nelarabine + Vorinostat; first compound 0.3162 µM): 0.441 | relative viability (Nelarabine + Vorinostat; first compound 1 µM): 0.399
